# According to ChEMBL document CHEMBL4765411, “Discovery of 2-(2-aminobenzo[d]thiazol-6-yl) benzo[d]oxazol-5-amine derivatives that regulated HPV relevant cellular pathway and prevented cervical cancer from abnormal proliferation” (Eur J Med Chem, 2020):
# Active and inactive are the calls of the source. The rule behind the calls is not given here.
# Legend:
# [1] = test system: HeLa; assay: Antiproliferative activity against human HeLa cells assessed as growth inhibition at 20 uM viability after 72 hrs by SRB assay relative to control; type: functional; details: read-out: GI
# [2] = test system: HeLa; assay: Antiproliferative activity against human HeLa cells assessed as growth inhibition at 1 uM viability after 72 hrs by SRB assay relative to control; type: functional; details: read-out: GI
# [3] = test system: HeLa; assay: Antiproliferative activity against human HeLa cells assessed as reduction in cell viability after 72 hrs by SRB assay; type: functional, cell-based
# [4] = Toxicity in BALB/c nude mouse xenografted with human A375 cells assessed as effect on body weight at 50 mg/kg, ig administered for alternative days; type: organism-based; details: in vivo, po
# [5] = test system: HeLa; assay: Induction of apoptosis in human HeLa cells assessed as early apoptotic cells at 1 uM after 24 hrs by Annexin V FITC/propidium iodide staining based flow cytometric analysis (reference value: 0.6%); type: functional
# [6] = test system: HeLa; assay: Induction of apoptosis in human HeLa cells assessed as late apoptotic cells at 1 uM after 24 hrs by Annexin V FITC/propidium iodide staining based flow cytometric analysis (reference value: 0.41%); type: functional
# [7] = test system: SK-OV-3; assay: Antitumour activity against human SKOV-3 cells xenografted in BALB/c nude mouse assessed as reduction in tumour growth at 50 mg/kg, ig administered for alternative days; type: functional, organism-based
# [8] = test system: MCF7; assay: Antitumour activity against human MCF7 cells xenografted in BALB/c nude mouse assessed as reduction in tumour growth at 50 mg/kg, ig administered for alternative days; type: functional, organism-based
# [9] = test system: human papillomavirus 18; assay: Down regulation of viral protein E7 in HPV18 infected in human HeLa cells after 24 hrs by Western blot analysis; type: functional, cell-based; details: dose 0.5-10 µM
# [10] = Toxicity in BALB/c nude mouse xenografted with human HeLa cells assessed as effect on body weight at 50 mg/kg, ig administered for alternative days; type: organism-based; details: in vivo, po
# [11] = test system: HeLa; assay: Induction of apoptosis in human HeLa cells assessed as necrotic cells at 1 uM after 24 hrs by Annexin V FITC/propidium iodide staining based flow cytometric analysis (reference value: 1.02%); type: functional
# [12] = Antiproliferative activity against human C4-1 cells assessed as reduction in cell viability after 72 hrs by SRB assay; type: functional, cell-based; details: C4-1, 72 h
# [13] = Toxicity in BALB/c nude mouse xenografted with human MCF7 cells assessed as effect on body weight at 50 mg/kg, ig administered for alternative days; type: organism-based; details: in vivo, po
# [14] = Toxicity in BALB/c nude mouse xenografted with human A431 cells assessed as effect on body weight at 50 mg/kg, ig administered for alternative days; type: organism-based; details: in vivo, po
# [15] = test system: human papillomavirus 18; assay: Down regulation of viral protein E6 in HPV18 infected in human HeLa cells after 24 hrs by Western blot analysis; type: functional, cell-based; details: dose 0.5-10 µM
# [16] = test system: HeLa; assay: Induction of cell cycle arrest in human HeLa cells assessed as decrease in accumulation in S phase at 1 uM after 24 hrs by RNAse/propidium iodide staining based flow cytometric analysis; type: functional
# [17] = target: T1, Protein E7 (human papillomavirus 18) (UniProt P06788); assay: Inhibition of viral protein E7 in HPV18 infected in human HeLa cells assessed as reduction in phosphorylation of Rb at S780 residue after 24 hrs by Western blot analysis; type: cell-based; details: dose 0.5-10 µM
# T1 sequence (whole entry): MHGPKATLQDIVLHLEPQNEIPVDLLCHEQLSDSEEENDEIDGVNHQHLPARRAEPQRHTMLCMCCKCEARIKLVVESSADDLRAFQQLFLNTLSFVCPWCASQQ
# [18] = test system: HeLa; assay: Down regulation of viral protein E7 in HPV18 infected in human HeLa cells at 5 uM after 24 hrs in presence of MG132 by Western blot analysis; type: functional, cell-based
# [19] = test system: A-431; assay: Antitumour activity against human A431 cells xenografted in BALB/c nude mouse assessed as reduction in tumour growth at 50 mg/kg, ig administered for alternative days; type: functional, organism-based
# [20] = test system: HeLa; assay: Antitumour activity against human HeLa cells xenografted in BALB/c nude mouse assessed as reduction in tumour growth at 50 mg/kg, ig administered for alternative days; type: functional, organism-based
# [21] = target: T1, Protein E7 (human papillomavirus 18); assay: Inhibition of viral protein E7 in HPV18 infected in human HeLa cells assessed as reduction in E2F-1 protein […] after 24 hrs by Western blot analysis; type: cell-based; details: dose 0.5-10 µM
# [22] = test system: A-375; assay: Antitumour activity against human A375 cells xenografted in BALB/c nude mouse assessed as reduction in tumour growth at 50 mg/kg, ig administered for alternative days; type: functional, organism-based
# [23] = target: T1, Protein E7 (human papillomavirus 18); assay: Inhibition of viral protein E7 in HPV18 infected in human HeLa cells assessed as reduction in phosphorylation of Rb at S608 residue after 24 hrs by Western blot analysis; type: cell-based; details: dose 0.5-10 µM
# [24] = test system: human papillomavirus 18; assay: Down regulation of viral protein E6 in HPV18 infected in human C4-1 cells after 24 hrs by Western blot analysis; type: functional, cell-based; details: dose 0.5-10 µM
# [25] = Toxicity in BALB/c nude mouse xenografted with human SKOV-3 cells assessed as effect on body weight at 50 mg/kg, ig administered for alternative days; type: organism-based; details: in vivo, po
# [26] = test system: C-33-A; assay: Antiproliferative activity against human C-33-A cells assessed as reduction in cell viability after 72 hrs by SRB assay; type: functional, cell-based
# [27] = test system: SiHa; assay: Antiproliferative activity against human SiHa cells assessed as reduction in cell viability after 72 hrs by SRB assay; type: functional, cell-based
# [28] = test system: human papillomavirus 18; assay: Down regulation of viral protein E7 in HPV18 infected in human C4-1 cells after 24 hrs by Western blot analysis; type: functional, cell-based; details: dose 0.5-10 µM
# [29] = test system: HEK293; assay: Cytotoxicity against human HEK293 cells assessed as reduction in cell viability after 72 hrs by SRB assay; type: cell-based; details: HEK293, 72 h
# [30] = target: T1, Protein E7 (human papillomavirus 18); assay: Inhibition of viral protein E7 in HPV18 infected in human HeLa cells assessed as reduction in DNMT1 protein […] after 24 hrs by Western blot analysis; type: cell-based; details: dose 0.5-10 µM
# [31] = test system: HeLa; assay: Induction of apoptosis in human HeLa cells assessed as viable cells at 1 uM after 24 hrs by Annexin V FITC/propidium iodide staining based flow cytometric analysis (reference value: 97.97%); type: functional; details: read-out: Activity
smiles,measurement,setting,value
Sc1nc2ccccc2s1 [2-MERCAPTOBENZOTHIAZOLE],inhibition of growth at 20 µM,[1],7.9%
Nc1ccc2oc(-c3ccccc3)nc2c1,inhibition of growth at 20 µM,[1],-2.3%
C[S+]([O-])c1ccc2nc(N)sc2c1 (stereo not drawn),inhibition of growth at 20 µM,[1],9.1%
Nc1ccc(-c2nc3cc(N)ccc3o2)cc1,inhibition of growth at 20 µM,[1],1.2%
O=C(Nc1nc2ccccc2s1)c1c(Cl)cccc1Cl,inhibition of growth at 20 µM,[1],3.5%
Brc1ccc(-c2nc3ccccc3s2)cc1,inhibition of growth at 20 µM,[1],5.5%
COc1ccc(-c2nc3cc(N)ccc3o2)cc1OC,inhibition of growth at 20 µM,[1],2.3%
Nc1ccc2oc(-c3ccc(Cl)cc3Cl)nc2c1,inhibition of growth at 20 µM,[1],6%
COc1ccc2nc(N)sc2c1,inhibition of growth at 20 µM,[1],-3.4%
FC(F)(F)c1ccc(-c2nc3ccccc3s2)nn1,inhibition of growth at 20 µM,[1],9.7%
Nc1ccc(-c2nc3ccccc3o2)cc1,inhibition of growth at 20 µM,[1],19.3%
COc1cccc2sc(N)nc12,inhibition of growth at 20 µM,[1],0.6%
CCNC(=O)Nc1ccc2oc(-c3ccc4nc(N)sc4c3)nc2c1,inhibition of growth at 20 µM,[1],6.8%
same,inhibition of growth at 1 µM,[2],0.7%
Nc1nc2ccc([N+](=O)[O-])cc2s1,inhibition of growth at 20 µM,[1],6%
Nc1cccc(-c2nc3ccccc3[nH]2)c1,inhibition of growth at 20 µM,[1],0%
c1cncc(-c2nc3ccccc3s2)c1,inhibition of growth at 20 µM,[1],4.4%
Nc1ccc(-c2nc3cc(N)ccc3[nH]2)cc1,inhibition of growth at 20 µM,[1],4%
Nc1nc2c(Br)cccc2s1,inhibition of growth at 20 µM,[1],1.7%
COc1ccc2sc(N)nc2c1,inhibition of growth at 20 µM,[1],12.2%
c1ccc(-c2nc3ccccc3[nH]2)nc1,inhibition of growth at 20 µM,[1],2.5%
Nc1ccc2oc(-c3ccccc3F)nc2c1,inhibition of growth at 20 µM,[1],42.4%
COc1ccc(-c2nc3cc(N)ccc3o2)cc1,inhibition of growth at 20 µM,[1],42.6%
Nc1nc2ccc(-c3nc4ccccc4s3)cc2s1,inhibition of growth at 20 µM,[1],47.8%
Cc1nc2cc(N)ccc2s1,inhibition of growth at 20 µM,[1],6.1%
Cc1nc(-c2nc3ccccc3s2)n[nH]1,inhibition of growth at 20 µM,[1],6.6%
Nc1ccc2oc(-c3ccc4ncsc4c3)nc2c1,inhibition of growth at 20 µM,[1],58%
same,IC50,[3],7.08 µM
same,inhibition of growth at 1 µM,[2],20.3%
Nc1ccc(O)c(-n2nc3ccc(N)cc3n2)c1,inhibition of growth at 20 µM,[1],7.1%
CC[n+]1ccccc1-c1nc2ccccc2s1,inhibition of growth at 20 µM,[1],2.1%
Clc1ccccc1-c1nc2ccccc2s1,inhibition of growth at 20 µM,[1],4.9%
c1ccc2oc(-c3ccc4ncsc4c3)nc2c1,inhibition of growth at 20 µM,[1],49.2%
same,IC50,[3],6 µM
same,inhibition of growth at 1 µM,[2],17.6%
Oc1ccccc1-c1nc2ccccc2s1,inhibition of growth at 20 µM,[1],8.1%
O=S(=O)(O)c1nc2ccccc2s1,inhibition of growth at 20 µM,[1],25%
Nc1ccc2oc(-c3cc(Cl)ccc3Cl)nc2c1,inhibition of growth at 20 µM,[1],-0.2%
Nc1ccc2oc(-c3cc(I)ccc3Cl)nc2c1,inhibition of growth at 20 µM,[1],26.5%
Nc1ccc(-c2nc3ccccc3[nH]2)c(N)c1,inhibition of growth at 20 µM,[1],0.2%
Nc1ccc2nc(N)sc2c1,inhibition of growth at 20 µM,[1],6.9%
Nc1ccc2oc(-c3cccc4c(Br)cccc34)nc2c1,inhibition of growth at 20 µM,[1],13.8%
c1ccc(-c2nc3ccccc3s2)cc1 [2-PHENYLBENZO[D]THIAZOLE],inhibition of growth at 20 µM,[1],2.6%
Nc1ccc2oc(-c3cccnc3)nc2c1,inhibition of growth at 20 µM,[1],1.3%
CCOc1ccc(-c2nc3cc(N)ccc3o2)cc1,inhibition of growth at 20 µM,[1],5.8%
Nc1cccc(-c2nc3ccccc3s2)c1,inhibition of growth at 20 µM,[1],1.7%
CN(C)c1ccc(-c2nc3cc(N)ccc3o2)cc1,inhibition of growth at 20 µM,[1],8.9%
Nc1ccc(Br)cc1-c1nc2ccccc2s1,inhibition of growth at 20 µM,[1],0.8%
COc1ccc(-c2nc3ccccc3s2)cc1,inhibition of growth at 20 µM,[1],0.1%
Nc1ccc2sc(N)nc2c1,inhibition of growth at 20 µM,[1],9.6%
Nc1nc2ccccc2[nH]1,inhibition of growth at 20 µM,[1],1.1%
N#Cc1ccc(-c2nc3ccccc3s2)cc1,inhibition of growth at 20 µM,[1],10.8%
Nc1cc(N)cc(-c2nc3ccccc3[nH]2)c1,inhibition of growth at 20 µM,[1],34.5%
Nc1nc2ccc(-c3nc4ccccc4o3)cc2s1,inhibition of growth at 20 µM,[1],67.2%
same,IC50,[3],0.82 µM
same,inhibition of growth at 1 µM,[2],59.6%
Clc1ccc(-c2nc3ccccc3s2)c(Cl)c1,inhibition of growth at 20 µM,[1],0.3%
Nc1ccc2oc(-c3ccc4nc(N)sc4c3)nc2c1,Activity,[4],Non-Toxic
same,Activity,[5],8.77%
same,Activity,[6],3.05%
same,Activity,[7],inactive
same,Activity,[8],inactive
same,Activity,[9],Dose-dependent effect
same,Activity,[10],Non-Toxic
same,Activity,[11],2.33%
same,IC50,[12],0.44 µM
same,Activity,[13],Non-Toxic
same,Activity,[14],Non-Toxic
same,inhibition of growth at 20 µM,[1],81.1%
same,Activity,[15],Dose-dependent effect
same,Activity,[16],Active
same,inhibition,[17],Dose-dependent effect
same,IC50,[3],0.38 µM
same,Activity,[18],inactive
same,Activity,[19],inactive
same,Activity,[20],Active
same,inhibition,[21],Dose-dependent effect
same,inhibition of growth at 1 µM,[2],81.7%
same,Activity,[22],inactive
same,inhibition,[23],Dose-dependent effect
same,Activity,[24],Dose-dependent effect
same,Activity,[25],Non-Toxic
same,IC50,[26],11.9 µM
same,IC50,[27],11.5 µM
same,Activity,[28],Dose-dependent effect
same,IC50,[29],> 20 µM
same,inhibition,[30],Dose-dependent effect
same,viability at 1 µM,[31],85.8%
O=[N+]([O-])c1cccc(-c2nc3ccccc3s2)c1,inhibition of growth at 20 µM,[1],4.4%
Nc1ccc2nc(-c3ccccc3)oc2c1,inhibition of growth at 20 µM,[1],-0.7%
Nc1nc2cccc(Cl)c2s1,inhibition of growth at 20 µM,[1],5.3%
O=[N+]([O-])c1ccc(-c2nc3cc([N+](=O)[O-])ccc3o2)cc1,inhibition of growth at 20 µM,[1],3.8%
Brc1cccc(-c2nc3ccccc3s2)c1,inhibition of growth at 20 µM,[1],2.6%
O=C(Nc1nc2ccccc2s1)c1cccnc1Cl,inhibition of growth at 20 µM,[1],5.5%
Nc1ccc2nn(-c3ccccc3)nc2c1,inhibition of growth at 20 µM,[1],53%
C[n+]1ccccc1-c1nc2ccccc2s1,inhibition of growth at 20 µM,[1],1.2%
Oc1c(Br)cc(Br)cc1-c1nc2ccccc2s1,inhibition of growth at 20 µM,[1],4%
Nc1ccc(-c2nc3ccccc3[nH]2)cc1,inhibition of growth at 20 µM,[1],1.9%
